Test results published in patent US20260176289A1, “SMALL MOLECULE INHIBITORS OF KRAS PROTEINS” (Merck Sharp & Dohme LLC, priority 2022, published 2026).
Where two headings read alike, the source gives them in different places.

What was measured:
AsPC-1 cells = experiment: Cellular phospho-ERK assay, AsPC-1 cells (homozygous KRAS-G12D); type: cell-based; settings: read-out: AsPC1 pERK IC50
In short: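 ERK phosphorylation relative to total ERK is the endpoint, detected by AlphaScreen-based SureFire multiplex following a 2-hour treatment at 37 °C. Compounds are titrated 1:3 over ten points from 30 μM.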

KRAS-WT = KRAS-WT (Homo sapiens, UniProt P01116); experiment: SOS-catalyzed nucleotide exchange assay (Procedure A, TR-FRET), KRAS-WT; type: biochemical; settings: nucleotide exchange, read-out: KRAS WT GNE IC50
In short: (§1)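 Inhibitors stabilizing the Bodipy-GDP state are detected as retained TR-FRET from a preformed biotinylated RAS/Tb-streptavidin complex. They are preincubated 60 min at room temperature, then human SOS and 3 mM GTP are added. G12V runs 90 min at 1.25 nM RAS/160 nM SOS. G12C (3 nM), WT (1 nM) and NRAS (1.25 nM) run 60 min with 40 nM SOS.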

KRAS-G12D = KRAS-G12D (Homo sapiens, UniProt P01116, G12D); experiment: SOS-catalyzed nucleotide exchange assay (Procedure A, TR-FRET), KRAS-G12D; type: biochemical; settings: nucleotide exchange, read-out: KRAS G12D GNE IC50
In short: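 Signal ratio (520/495 nm, excitation 340 nm) reports Bodipy-GDP retention on biotinylated RAS after SOS-catalyzed exchange with 3 mM GTP. SOS was 40 nM, except 160 nM for G12V. Room-temperature exchange lasted 60 min (90 min for G12V), following a 60 min compound preincubation.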

KRAS-G12V = KRAS-G12V (Homo sapiens, UniProt P01116, G12V); experiment: SOS-catalyzed nucleotide exchange assay (Procedure A, TR-FRET), KRAS-G12V; type: biochemical; settings: nucleotide exchange, read-out: KRAS G12V GNE IC50
In short: as §1

[1] = Homo sapiens, ASPC1, 2 h, 2 hours compound incubation
[2] = Homo sapiens, ASPC1, 2 h, KRAS-G12D, 2 hours

Sequence of KRAS-G12D (P01116 with tags, fused parts or gaps isoform P01116-2 G12D): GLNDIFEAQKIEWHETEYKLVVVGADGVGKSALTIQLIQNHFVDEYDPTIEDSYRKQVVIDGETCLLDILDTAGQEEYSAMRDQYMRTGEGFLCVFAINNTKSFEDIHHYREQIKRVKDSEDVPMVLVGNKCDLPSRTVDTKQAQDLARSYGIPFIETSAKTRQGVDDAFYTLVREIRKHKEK
Sequence of KRAS-WT (P01116 with tags, fused parts or gaps isoform P01116-2): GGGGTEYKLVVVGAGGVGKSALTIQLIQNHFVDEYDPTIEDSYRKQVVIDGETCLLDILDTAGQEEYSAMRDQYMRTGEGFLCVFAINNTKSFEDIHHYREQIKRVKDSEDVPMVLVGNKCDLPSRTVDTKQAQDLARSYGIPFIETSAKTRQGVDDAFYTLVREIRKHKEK
Sequence of KRAS-G12V (P01116 with tags, fused parts or gaps isoform P01116-2 G12V): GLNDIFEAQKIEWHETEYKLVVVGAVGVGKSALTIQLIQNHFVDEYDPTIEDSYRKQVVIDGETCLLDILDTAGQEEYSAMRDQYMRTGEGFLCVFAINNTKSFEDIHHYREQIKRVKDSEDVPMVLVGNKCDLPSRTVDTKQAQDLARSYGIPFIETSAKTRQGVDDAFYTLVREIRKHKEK

Compound	IC50 (AsPC-1 cells; [1]) [nM]	IC50 (KRAS-WT) [nM]	IC50 (KRAS-G12D) [nM]	IC50 (KRAS-G12V) [nM]	IC50 (AsPC-1 cells; [2]) [nM]	IC50 (AsPC-1 cells; KRAS-G12D, 2 hours) [nM]
COCC12CC(CN1C[C@@]1(COc3nc(N4CCOC[C@@](C)(O)C4)c4c(n3)sc3c(-c5c(C6(F)CC6)c(Cl)cc6[nH]ncc56)nccc34)CC1(F)F)C2 [Ex-258, (6S)-4-(8-(6-chloro-5-(1-fluorocyclopropyl)-1H-indazol-4-yl)-2-(((R)-2,2-difluoro-1-((1-(methoxymethyl)-2-azabicyclo[2.1.1]hexan-2-yl)methyl)cyclopropyl)metho-xy)pyrido[4′,3′:4,5]thieno[2,3-d]pyrimidin-4-yl)-6-methyl-1,4-oxazepan-6-ol]	124	38.8	7	25.2	–	–
C[C@@]1(O)COCCN(c2nc(OC[C@]3(CN4CC5CC4(CF)C5)CC3(F)F)nc3sc4c(-c5c(C6(F)CC6)c(Cl)cc6[nH]ncc56)nccc4c23)C1 [Ex-259, (6S)-4-(8-(6-chloro-5-(1-fluorocyclopropyl)-1H-indazol-4-yl)-2-(((R)-2,2-difluoro-1-((1-(fluoromethyl)-2-azabicyclo[2.1.1]hexan-2-yl)methyl)cyclopropyl)metho-xy)pyrido[4′,3′:4,5]thieno[2,3-d]pyrimidin-4-yl)-6-methyl-1,4-oxazepan-6-ol]	184	79.7	11.3	34.2	–	–
CO[C@]12CC[C@H]1CN(C[C@@]1(COc3nc(N4CCOC[C@@](C)(O)C4)c4c(n3)sc3c(-c5c(C6(F)CC6)c(Cl)cc6[nH]ncc56)nccc34)CC1(F)F)C2 [Ex-260, (6S)-4-(8-(6-chloro-5-(1-fluorocyclopropyl)-1H-indazol-4-yl)-2-(((R)-2,2-difluoro-1-(((1R,5S)-1-methoxy-3-azabicyclo[3.2.0]heptan-3-yl)methyl)cyclopropyl)metho-xy)pyrido[4′,3′:4,5]thieno[2,3-d]pyrimidin-4-yl)-6-methyl-1,4-oxazepan-6-ol]	1210	486	41.6	185	–	–
COC1CC2(C1)CN(C[C@@]1(COc3nc(N4CCOC[C@@](C)(O)C4)c4c(n3)sc3c(-c5c(C6(F)CC6)c(Cl)cc6[nH]ncc56)nccc34)CC1(F)F)C2 [Ex-263, (6S)-4-(8-(6-chloro-5-(1-fluorocyclopropyl)-1H-indazol-4-yl)-2-(((R)-2,2-difluoro-1-((6-methoxy-2-azaspiro[3.3]heptan-2-yl)methyl)cyclopropyl)metho-xy)pyrido[4′,3′:4,5]thieno[2,3-d]pyrimidin-4-yl)-6-methyl-1,4-oxazepan-6-ol]	111	11.4	3.02	12.5	–	–
C[C@@]1(O)COCCN(c2nc(OC[C@]3(CN4CCOC5(CC5)C4)CC3(F)F)nc3sc4c(-c5c(C6(F)CC6)c(Cl)cc6[nH]ncc56)nccc4c23)C1 [Ex-264, (6S)-4-(2-(((R)-1-((4-oxa-7-azaspiro[2.5]octan-7-yl)methyl)-2,2-difluorocyclopropyl)methoxy)-8-(6-chloro-5-(1-fluorocyclopropyl)-1H-indazol-4-yl)pyrido[4′,3′:4,5]thieno[2,3-d]pyrimidin-4-yl)-6-methyl-1,4-oxazepan-6-ol]	618	351	63.9	215	–	–
C[C@@]1(O)COCCN(c2nc(OC[C@]3(CN4CC5(CCO5)C4)CC3(F)F)nc3sc4c(-c5c(C6(F)CC6)c(Cl)cc6[nH]ncc56)nccc4c23)C1 [Ex-265, (6S)-4-(2-(((R)-1-((1-oxa-6-azaspiro[3.3]heptan-6-yl)methyl)-2,2-difluorocyclopropyl)methoxy)-8-(6-chloro-5-(1-fluorocyclopropyl)-1H-indazol-4-yl)pyrido[4′,3′:4,5]thieno[2,3-d]pyrimidin-4-yl)-6-methyl-1,4-oxazepan-6-ol]	200	24.5	4.21	14.9	–	–
CN(C)C1CC(F)(F)C2C[C@]12COc1nc(N2CCOC[C@@](C)(O)C2)c2c(n1)sc1c(-c3c(C4(F)CC4)c(Cl)cc4[nH]ncc34)nccc12 (stereo partly drawn) [Ex-270, (6S)-4-(8-(6-chloro-5-(1-fluorocyclopropyl)-1H-indazol-4-yl)-2-((2-(dimethylamino)-4,4-difluorobicy-clo[3.1.0]hexan-1-yl)methoxy)pyri-do[4′,3′:4,5]thi-eno[2,3-d]pyrimidin-4-yl)-6-methyl-1,4-oxazepan-6-ol]	–	27.9	8.78	30.9	142	–
CN(C)C1CC(F)(F)C2C[C@]12COc1nc(N2CCOC[C@@](C)(O)C2)c2c(n1)sc1c(-c3c(C4(F)CC4)c(Cl)cc4[nH]ncc34)nccc12 (stereo partly drawn) [Ex-271]	–	78.8	42.2	37.3	–	244
F[C@H]1CN2CCC[C@@]2(COc2nc(N3CCCOCC3)c3c(n2)sc2c(-c4c(C5CC5)c(Cl)cc5[nH]ncc45)nncc23)C1 [Ex-286]	–	52	205	50.3	1110	–
CN(C)C[C@@]1(COc2nc(N3CCOC[C@@](C)(O)C3)c3c(n2)sc2c(-c4c(C5CC5)c(Cl)cc5[nH]ncc45)nncc23)CC1(F)F [Ex-287, (6S)-4-(8-(6-chloro-5-cyclopropyl-1H-indazol-4-yl)-2-(((R)-1-((dimethylamino)methyl)-2,2-difluorocyclopropyl)meth-oxy)pyrimido[5′,4′:4,5]thi-eno[2,3-d]pyridazin-4-yl)-6-methyl-1,4-oxazepan-6-ol]	–	10.2	5.28	15.9	41.5	–

Now from value to compound:

IC50 (AsPC-1 cells; [1]) [nM]	IC50 (KRAS-WT) [nM]	IC50 (KRAS-G12D) [nM]	IC50 (KRAS-G12V) [nM]	IC50 (AsPC-1 cells; [2]) [nM]	IC50 (AsPC-1 cells; KRAS-G12D, 2 hours) [nM]	Compound
369	81.6	17	58.3	–	–	C[C@@H]1CCN1C[C@@]1(COc2nc(N3CCOC[C@@](C)(O)C3)c3c(n2)sc2c(-c4c(C5(F)CC5)c(Cl)cc5[nH]ncc45)nccc23)CC1(F)F [Ex-261, (6S)-4-(8-(6-chloro-5-(1-fluorocyclopropyl)-1H-indazol-4-yl)-2-(((R)-2,2-difluoro-1-(((R)-2-methylazetidin-1-yl)methyl)cyclopropyl)metho-xy)pyrido[4′,3′:4,5]thieno[2,3-d]pyrimidin-4-yl)-6-methyl-1,4-oxazepan-6-ol]
–	31.2	8.24	11.7	356	–	Cc1cc2[nH]ncc2c(-c2nncc3c2sc2nc(OC[C@@]45CCCN4C[C@H](F)C5)nc(N4CCOC[C@@](C)(O)C4)c23)c1-c1ccco1 [Ex-281, (6S)-4-(2-(((2R,7aS)-2-fluorotetrahydro-1H-pyrrolizin-7a(5H)-yl)methoxy)-8-(5-(furan-2-yl)-6-methyl-1H-indazol-4-yl)pyrimido[5′,4′:4,5]thie-no[2,3-d]pyridazin-4-yl)-6-methyl-1,4-oxazepan-6-ol]
–	578	195	138	935	–	C[C@@]1(O)COCCN(c2nc(OC[C@@]34CCCN3C[C@H](F)C4)nc3sc4c(-c5cccc(Cl)c5C5CC5)nncc4c23)C1 [Ex-284]
–	185	72.1	98.2	1900	–	Cc1cc2[nH]ncc2c(-c2nccn3c2cc2nc(OC[C@@]45CCCN4C[C@H](F)C5)nc(N4CCOC[C@@](C)(O)C4)c23)c1C1CC1 [Ex-295, (S)-4-(9-(5-cyclopropyl-6-methyl-1H-indazol-4-yl)-2-(((2R,7aS)-2-fluorotetrahydro-1H-pyrrolizin-7a(5H)-yl)methoxy)pyrazino[1′,2′:1,5]pyrrolo[3,2-d]pyrimidin-4-yl)-6-methyl-1,4-oxazepan-6-ol]
–	293	115	93.1	1450	–	Cc1cc2[nH]ncc2c(-c2nccn3c2c(Cl)c2nc(OC[C@@]45CCCN4C[C@H](F)C5)nc(N4CCOC[C@@](C)(O)C4)c23)c1C(F)(F)F [Ex-299, (S)-4-(10-chloro-2-(((2R,7aS)-2-fluorotetrahydro-1H-pyrrolizin-7a(5H)-yl)methoxy)-9-(6-methyl-5-(trifluoromethyl)-1H-indazol-4-yl)pyrazino[1′,2′:1,5]pyrrolo[3,2-d]pyrimidin-4-yl)-6-methyl-1,4-oxazepan-6-ol]
